Test results taken from patent publication US10946019B2, “Nurr1:RXR activating compounds for simultaneous treatment of symptoms and pathology of Parkinson's disease” (priority 2015, dated 2021).

Key:
Nurr1:RXRγ heterodimer = Nurr1:RXRγ heterodimer (Homo sapiens (Human), UniProt P48443); experiment: Nurr1:RXRγ luciferase reporter transactivation assay; type: cell-based; settings: SHSY-5Y
Protocol: Synthesized compounds of the invention and their analogs, shown in Table 1, below, were evaluated for activity in cellular assays. The in vitro transactivation assay determined the capacity of the compounds of the invention to activate the Nurr1:RXR heterodimers. Naive SHSY-5Y cells were transiently co-transfected, using Lipofectamine 2000 (Invitrogen), with a plasmid expressing the human receptor Nurr1, a plasmid expressing the RXR human receptor (RXRα or RXRγ receptor) and a reporter plasmid DR5-TK-Luc. After 24 hours, the culture medium was changed. The test compounds were added (final concentration between 0.5, 2.5 and 12.5 μM) in the culture medium. After incubation overnight, the expression of luciferase was measured (FIG. 1A). Positive control cells were treated with XCT0135908 (1 μM; WO 2005/047268) which induces activation of the Nurr1:RXR heterodimer and results in maximal expression of luciferase. The transcription-activating activities of various compounds of the invention are shown in FIG. 1B, as well as in Table 1, below. […] Furthermore, compound 3 is selective for the Nurr1:RXRα heterodimer over the Nurr1:RXRγ heterodimer (FIG. 1D).

[1] = target: Nur77GAL4:RXRαVP16 heterodimers (Homo sapiens (Human), UniProt P19793); experiment: GAL4/VP16 chimera specificity luciferase assay in SHSY-5Y; type: cell-based; settings: GAL4-responsive luciferase reporter
Nur77GAL4:RXRαVP16 heterodimers, sequence (P19793 whole entry, looked up, the tested form may be a part): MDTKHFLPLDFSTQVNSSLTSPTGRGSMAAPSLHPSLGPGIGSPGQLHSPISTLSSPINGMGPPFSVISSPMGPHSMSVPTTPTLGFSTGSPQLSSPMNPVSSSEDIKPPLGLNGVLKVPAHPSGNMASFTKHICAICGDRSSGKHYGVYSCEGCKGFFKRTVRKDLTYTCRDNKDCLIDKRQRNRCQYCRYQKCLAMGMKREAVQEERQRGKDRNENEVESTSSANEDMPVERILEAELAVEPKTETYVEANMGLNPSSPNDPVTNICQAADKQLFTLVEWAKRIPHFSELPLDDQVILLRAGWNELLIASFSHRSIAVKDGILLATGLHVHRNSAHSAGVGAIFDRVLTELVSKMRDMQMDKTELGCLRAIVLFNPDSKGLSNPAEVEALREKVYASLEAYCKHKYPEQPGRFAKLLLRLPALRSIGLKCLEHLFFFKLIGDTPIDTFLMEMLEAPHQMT
Nur77GAL4:RXRαVP16 heterodimers, sequence (P22736 whole entry partner, looked up, the tested form may be a part): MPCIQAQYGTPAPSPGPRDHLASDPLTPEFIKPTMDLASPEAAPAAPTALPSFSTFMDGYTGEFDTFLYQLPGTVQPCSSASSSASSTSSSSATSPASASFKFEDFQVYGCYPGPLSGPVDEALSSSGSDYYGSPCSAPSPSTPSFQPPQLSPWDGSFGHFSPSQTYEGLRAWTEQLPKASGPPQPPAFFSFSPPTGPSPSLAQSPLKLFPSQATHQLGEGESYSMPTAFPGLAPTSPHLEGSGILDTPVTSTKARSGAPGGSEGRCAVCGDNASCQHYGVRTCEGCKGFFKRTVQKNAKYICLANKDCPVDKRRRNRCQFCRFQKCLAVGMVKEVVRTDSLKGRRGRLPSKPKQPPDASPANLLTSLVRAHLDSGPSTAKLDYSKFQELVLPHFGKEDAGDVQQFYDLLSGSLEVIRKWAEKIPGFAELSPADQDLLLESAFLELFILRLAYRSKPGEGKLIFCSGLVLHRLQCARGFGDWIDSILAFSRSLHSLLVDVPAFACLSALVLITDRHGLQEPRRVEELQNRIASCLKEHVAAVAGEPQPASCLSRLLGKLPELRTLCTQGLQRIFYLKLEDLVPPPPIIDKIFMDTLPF
Source text: To test off-target effects of compound 3 on complexes aside from Nurr1:RXRα heterodimers, we fused the ligand binding domains of Nurr1, RXRα and a variety of related nuclear receptors to GAL4 DNA-binding domain to create chimeric proteins, while the ligand-binding domain of RXRα was also fused with VP16. These molecular chimeras were co-transfected in pairs with the RXRα:VP16 along with a GAL4-responsive luciferase reporter in SHSY-5Y, which were stimulated with compound 3. […] The above experiments indicate the high degree of selectivity of compound 3 and point to its neuroprotective potential.

striatum 5HT levels = experiment: Striatal 5-HT and 5-HIAA levels by HPLC-ECD; type: in vivo, mouse; settings: C57/BL6 mice, IP 20 mg/kg, 4 h post injection
Protocol: We measured striatal 5-HT levels, and we detected 5-HT and 5-HIAA in wild type C57/BL6 mice. 4 hours after dosing animals were killed by cervical dislocation, brains were removed, and the striata were dissected on ice. The samples were immediately frozen and stored at −80° C. until use. The tissues were processed for the analysis by high performance liquid chromatography (HPLC) with an electrochemical detector (ECD) (Emmanouil et al., 2006). The dissected tissues were weighed, homogenized, and deproteinized in 0.2 N perchloric acid solution containing 7.9 mM Na2S2O5 and 1.3 mM Na2EDTA. The homogenate was centrifuged at 37,000×g for 30 minutes, and the supernatant was stored at −80° C. until assayed. A reverse-phase ion-pair chromatography was used in all analyses, and the mobile phase consisted of an acetonitrile-50 mM phosphate buffer at pH 3.0, containing 5-octylsulfate sodium salt (300 mg/L) as the ion-pair reagent and (20 mg/L) Na2EDTA. Reference standards were prepared in 0.2 N perchloric acid solution containing 7.9 mM Na2S2O5 and 1.3 mM Na2EDTA. Samples were quantified by comparison of the areas under the peaks with those of reference standards using HPLC software (Chromatography Station for Windows™, Watrex International Inc., San Francisco, Calif.) (FIG. 3C).

ASYN transgenic mice = experiment: Striatal dopamine levels in ASYN transgenic mice by HPLC; type: in vivo, mouse; settings: single IP 10 mg/kg, vs vehicle
Protocol: Given the role of Nurr1:RXRα activation in the transcriptional regulation of DA biosynthesis genes, we tested whether compound 3 could increase DA levels in wt and ASYN transgenic mice (Tofaris et al. J. Neurosci. 26:3942-3950, 2006), which display reduced striatal DA levels after reaching adulthood. […] Aiming to model PD based on human genetic data, we also tested whether compound 3 could increase DA levels in ASYN transgenic mice. A single IP injection of compound 3 (10 mg/kg) was able increase striatal DA (t test p=0.01069) and DA metabolite levels in ASYN transgenics as well (FIG. 75C) in comparison to mice receiving vehicle.

[2] = test system: C57BL/6 mice exposed to MPTP; experiment: Neuroprotection in the acute MPTP mouse model; type: in vivo
Rat cortical neurons = experiment: Apoptosis of cortical neurons transfected with LRRK2-G2019S, DAPI staining; type: cell-based; settings: rat cortical neurons co-transfected with CMV-GFP and LRRK2-G2019S
Source text: We examined the neuroprotective capability of Nurr1:RXRα heterodimer activation in SHSY-5Y cells where death was induced by either the oxidative stress related H2O2 or the mitochondria complex I inhibitor MPP+ (1-methyl-4-phenylpyridinium) (FIG. 72B). […] The protection conferred by compound 3 was Nurr1-dependent, since it was abrogated by knocking-down endogenous Nurr1 mRNA (FIGS. 1E and 72D). The neuroprotective effects of compound 3 extend to damage induced by the PD-associated mutation G2019S in the Leucine-Rich Repeat Kinase 2 (LRRK2) gene, the most common genetic defect associated with clinical PD (Tofaris et al. J. Neurosci. 26:3942-3950, 2006). Rat cortical neurons, co-transfected with CMV-GFP for identification, and CMVLRRK2-G2019S cDNAs show increased apoptosis as assessed by DAPI staining, compared to control neurons co-transfected with a LRRK2 wt cDNA.

[3] = test system: human midbrain-specific iPSc-derived DAergic neurons; experiment: Survival of iPSc-derived DAergic neurons exposed to MPP+; type: cell-based; settings: within 24 hours, compared to vehicle
Protocol: To ascertain the translational therapeutic potential of compound 3, we tested whether human midbrain-specific iPSc-derived DAergic neurons, as indicated by positive staining and qPCR for the neuronal markers MAP2, TH, FoxA2, Lmx1 and En1, can be protected from MPP+ toxicity. Compound 3 was able to double the number of surviving neurons after MPP+ exposure within 24 hours, compared to vehicle (FIGS. 72J-72L). The surviving control neurons had fewer and retreating projections, indicating compromised function (FIG. 72K) while the neurons that had received compound 3 had retained a complex network of projections and contacts (FIG. 72L). In addition, we tested compound 3 in iPSc-derived DAergic neurons from a PD patient carrying the LRRK2-G2019S mutation.

[4] = test system: C57BL/6 mice injected unilaterally with 6-OHDA; experiment: Neuroprotection in the unilateral 6-OHDA mouse model; settings: for reduction of apomorphine induced contralateral turns: 10 mg/kg IP every 12 hours

Nurr1:RXRγ heterodimer, sequence (P48443 whole entry, looked up): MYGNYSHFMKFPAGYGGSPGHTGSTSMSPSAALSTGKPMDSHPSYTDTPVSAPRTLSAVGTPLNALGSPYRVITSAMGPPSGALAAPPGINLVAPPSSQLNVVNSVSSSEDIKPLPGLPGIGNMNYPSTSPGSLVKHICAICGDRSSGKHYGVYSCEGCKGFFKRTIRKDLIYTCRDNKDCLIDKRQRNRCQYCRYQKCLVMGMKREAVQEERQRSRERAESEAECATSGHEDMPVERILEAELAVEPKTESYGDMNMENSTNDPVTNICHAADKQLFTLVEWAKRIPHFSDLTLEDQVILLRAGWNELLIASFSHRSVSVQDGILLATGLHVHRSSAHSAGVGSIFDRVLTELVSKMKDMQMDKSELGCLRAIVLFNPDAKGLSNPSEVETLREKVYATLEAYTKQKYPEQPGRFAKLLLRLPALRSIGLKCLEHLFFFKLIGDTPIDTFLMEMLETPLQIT
Nurr1:RXRγ heterodimer, sequence (P43354 whole entry partner, looked up): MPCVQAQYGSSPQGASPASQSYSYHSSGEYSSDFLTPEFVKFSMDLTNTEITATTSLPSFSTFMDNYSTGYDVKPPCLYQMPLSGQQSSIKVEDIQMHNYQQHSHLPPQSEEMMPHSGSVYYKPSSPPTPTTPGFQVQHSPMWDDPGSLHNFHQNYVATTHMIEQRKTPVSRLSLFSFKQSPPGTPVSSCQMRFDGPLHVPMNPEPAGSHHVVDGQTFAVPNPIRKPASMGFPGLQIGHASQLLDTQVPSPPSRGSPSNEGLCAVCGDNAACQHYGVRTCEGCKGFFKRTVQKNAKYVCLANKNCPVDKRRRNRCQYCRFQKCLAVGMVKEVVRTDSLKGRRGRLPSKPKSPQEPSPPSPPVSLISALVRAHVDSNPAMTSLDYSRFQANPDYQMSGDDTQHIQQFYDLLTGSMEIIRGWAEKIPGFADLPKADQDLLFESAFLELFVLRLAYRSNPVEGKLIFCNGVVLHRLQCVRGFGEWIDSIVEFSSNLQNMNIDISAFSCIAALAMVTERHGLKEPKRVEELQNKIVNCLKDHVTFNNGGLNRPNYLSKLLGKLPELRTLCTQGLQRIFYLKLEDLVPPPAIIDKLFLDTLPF

C=CCc1c(N(C)c2ccc(C(=O)O)cc2)nc(-c2ccccc2)nc1C(F)(F)F [Example 3, 4-((5-allyl-2-phenyl-6-(trifluoromethyl)pyrimidin-4-yl)(methyl)amino)benzoic acid]
activation of Nurr1:RXRγ heterodimers (Nurr1:RXRγ heterodimer): did not activate | activation of Nur77GAL4:RXRαVP16 heterodimers [1]: partially activated | striatum 5HT levels and 5HT metabolite 5HIAA levels (striatum 5HT levels): increased | striatal DA and DA metabolite levels (ASYN transgenic mice): increase | remaining SN axonal terminals in the striatum ([2]; 10 mg/kg IP every 12 hours): doubling | increase of TH(+) midbrain neuron survival ([2]; 10 mg/kg IP every 12 hours for 6 days, stereology): 31% | improvement of motor coordination (accelerating rotarod) ([2]; 10 mg/kg IP every 12 hours for 6 days, vs vehicle): > 100% | neuroprotection with once-a-day injection regimen ([2]; 20 mg/kg once a day): ineffective | increase in number of surviving neuronal bodies (SNpc) ([2]; C57/BL6, IP 10 mg/kg every 12 hours for 8 days): 33.5% | apoptosis induced by LRRK2-G2019S (Rat cortical neurons): reduced apoptosis to control levels | number of surviving neurons after MPP+ exposure [3]: double | motor coordination (rotarod test) ([4]; 6-OHDA, 10 mg/kg IP every 12 hours for 14 days): almost entirely restored to control levels | reduction of apomorphine induced contralateral turns ([4]; 6-OHDA, vs vehicle, listed as Compound 3): approximately 8 fold | reduction of apomorphine induced contralateral turns ([4]; 6-OHDA, vs vehicle, listed as compound 3): over 8 fold | increase in number of surviving neuronal bodies (SNpc) ([4]; 6-OHDA, IP 10 mg/kg every 12 hours for 15 days): 256.55% | preservation of striatal TH(+) DAergic projections (innervation) ([4]; 6-OHDA, vs vehicle): 10 fold | Rotarod test improvement ([4]; unilateral 6-OHDA, compound 3 vs vehicle (n=5)): 12 fold
